Test results reported in patent US10080779B2, “Method for increasing the expression of anti-microbial peptides by keratinocytes comprising administering a composition comprising IL-17, TNF-alpha and OSM” (Universite D'Angers, priority 2004, dated 2018).

B1: IL-31: cytokine whose receptor is a heterodimer of GPL and an OSMR subunit (protein, UniProt Q6EBC2 24-164, looked up)
Interleukin-31: SHTLPVRLLRPSDDVQKIVEELQSLSKMLLKDVEEEKGVLVSQNYTLPCLSPDAQPPNNIHSPAIRAYLKTIRQLDNKSVIDEIIEHLDKLIFQDAPETNISVPTDTHECKRFILTISQQFSECMDLALKSLTSGAQQATT

Columns and labels:
[1] = system: NHEK; experiment: Keratinocyte differentiation marker (KDM) mRNA in NHEK (RT-PCR); format: cell-based, human; conditions: 24 h; for mRNA expression of CK1, DSG1, DSC1, FLG, CLSP, LOR and FABPS: single cytokines 10 ng/ml
Description: (§1) Normal human epidermal keratinocytes (NHEK) were obtained as previously described, from surgical samples of healthy breast skin (Boniface et al, 2005). NHEK were cultured to 80% of confluence allowing the expression of a large panel of keratinocyte differentiation markers, and then starved for 24 h in Keratinocyte SFM containing 0.03 mM Ca^2+ (Invitrogen Life Technologies, Cergy Pontoise, France) before stimulation. Confluent differentiated cells were stimulated with or without recombinant IL-17A, OSM, TNFα, IL-22 and IL-1α alone at maximum effective concentrations (reported previously around 10 ng/ml (Boniface et al, 2005 and Boniface et al, 2007)) or in combination (R&D systems Europe, Lille, France) during 2 h to 72 h for mRNA quantification. RHE were generated on polycarbonate culture inserts, from surgical samples of paediatric foreskins as previously described (Guenou et al., 2009). RHE were stimulated with or without recombinant IL-17A, OSM, TNFα, IL-22 and IL-1α alone or in combination, with or without a Janus protein Tyrosine Kinases (JAKs) inhibitor 10 μM (Calbiochem, 420099), during 24 h for mRNA quantification or during 72 h for immunohistological analysis.
(§2) NHEK, RHE and murine skin total RNA were isolated using NucleoSpin® RNA II kit (Macherey-Nagel, Hoerdt, France) and reverse-transcribed with SuperScript® II Reverse Transcriptase (Invitrogen Life Technologies) according to the manufacturer's instructions. Quantitative real time PCR was carried out using the LightCycler-FastStart DNA Master SYBR® Green I kit on LightCycler 480 (Roche Diagnostics, Meylan, France). The reaction components were 1×DNA Master Mix, and 0.5 μM of HPLC purified sense and anti-sense oligonucleotides purchased from Eurogentec (Eurogentec France, Angers, France), designed using Primer3 software. The stability of the housekeeping gene expression has been assessed by using GeNorm algorithm. […] Thus samples were normalized to G3PDH housekeeping gene and reported according to the ΔΔCT method as RNA fold increase: 2^ΔΔCT=2^ΔCT sample−ΔCT reference.

[2] = system: NHEK; experiment: cDNA macroarrays analysis of 36 cytokines on 154 genes in NHEK; format: cell-based, human; conditions: 10 ng/ml, 24 h
Description: The comparison of the effects of 36 different cytokines on the expression of 154 genes of potential interest for skin physiology was performed using home-made cDNA macroarrays analysis. After cytokine stimulation, total RNA was extracted using TRIzoI® Reagent (Invitrogen life Technologies) and conventional 33P-cDNA target synthesis and hybridization were performed (Boniface et al, 2007). Genes were considered regulated if expression levels differed more than 3-fold relative to untreated control and 3-fold relative to mean background noise.

[3] = system: NHEK; experiment: Cytokine measurement by ELISA in NHEK culture supernatants; format: cell-based, human; conditions: 96 h
Description: (§3) NHEK were obtained as previously described, from surgical samples of healthy breast skin (Boniface et al, 2005). NHEK were cultured to 80% of confluence and then starved for 24 h in Keratinocyte SFM without addition of growth factors before stimulation. Cells were stimulated with or without 10 ng/ml of recombinant IL-17A, OSM, TNFα, IL-22 and IL-1α alone or in combination (R&D systems Europe, Lille, France) during 24 h for mRNA quantification or 48 h to 96 h for protein quantification.
Levels of BD2, BD3 and CXCL8 were determined using Human ELISA development kit (Peprotech), and CXCL1 and CXCL5 with DuoSet reagents (R&D Systems Europe).

[4] = system: NHEK; experiment: RT-QPCR of antimicrobial peptide and chemokine genes in NHEK; format: cell-based, human; conditions: 10 ng/ml, 24 h
Description: as §3
NHEK and skin total RNA were isolated and reverse-transcribed as previously described (Boniface et al, 2005). Quantitative real time PCR was carried using the LightCycler-FastStart DNA Master SYBR® Green I kit on LightCycler 480 (Roche Diagnostics, Meylan, France). The reaction components were 1×DNA Master Mix, and 0.5 μM of HPLC purified sense and anti-sense oligonucleotides purchased from Eurogentec (Eurogentec France, Angers, France), designed using Primer3 software. Samples were normalized to three independent control housekeeping genes (G3PDH, RPL13A or ACTB for human samples and G3PDH, HMBS or B2m for mouse samples) and reported according to the ΔΔCT method as RNA fold increase: 2^ΔΔCT=2^ΔCT sample−ΔCT eference. For comparison of normal skin and psoriatic skin the REST 2008 software was used (Pfaffl et al., 2002).

[5] = system: RHE; experiment: KDM mRNA in reconstituted human epidermis (RT-PCR); format: cell-based; conditions: 24 h
Description: as §1, §2

[6] = system: RHE; experiment: RHE histology and immunohistochemistry (Example 14); format: cell-based, human; conditions: single cytokines, 72 h; for CK10, LOR and FLG expression (immunohistology) / IVL expression (immunohistology) / S100A7 expression (immunohistology): RHE
Description: as §1
RHE were washed and fixed with formaldehyde solution. Fixed tissues were dehydrated with increasing ethanol concentrations, embedded in paraffin and sections were carried out using a microtome (4 μm thickness). The sections were deparaffinised, washed and incubated with hydrogen peroxide. The sections were incubated with anti-CK10 (SantaCruz, SC-23877), anti-LOR (Eurogentec, PRB-145P), anti-FLG (SantaCruz, SC-66192), anti-IVL (Biomedical Technologies, BT-601), anti-S100A7 (Clinisciences, IMG-409A) and then detected using a biotin-conjugated secondary antibody (Vector, RTU vectastain universal quick kit, PK-7800). After peroxidase-conjugated streptavidine (Vector, RTU vectastain universal quick kit, PK-7800) and peroxidase substrate addition (Dako, Substrat hyper-sensible AEC+), nuclei were counter-stained using a solution of hematoxylin. Sections were observed using a NIKON E400 microscope. The images were captured using a NIKON DS-Ril and processed with NIS-Elements 3.10 software.

[7] = system: normal human keratinocytes (NHEK); experiment: Cytokine cocktails on S100A7, hBD2/4, KRT10 mRNA in NHEK (RT-Q-PCR); format: cell-based; conditions: NHEK 24 hrs, 1 ng/ml each
Description: (§4) Quantitative real time PCR was carried out using the LightCycler-FastStart DNA Master^PLUS SYBR Green I kit (Roche, Mannheim, Germany). The reaction components were 1× FastStart DNA Master^PLUS SYBR Green I and 0.5 μM of forward and reverse primers for S100A7 (forward 5′-[…]-3′ (SEQ ID No: 9) and reverse 5′-[…]-3′ (SEQ ID No: 10)), S100A8 (Pattyn, Speleman et al. 2003), S100A9 (forward 5′-[…]-3′ (SEQ ID No: 11) and reverse 5′-[…]-3′ (SEQ ID No: 12)), hBD2/4 (forward 5′-[…]-3′ (SEQ ID No: 13) and reverse 5′-[…]-3′ (SEQ ID No: 14)), KRT10 (forward 5′-[…]-3′ (SEQ ID No: 15) and reverse 5′-[…]-3′ (SEQ ID No: 16)), and hydroxymethyl-bilane synthase (HMBS) as a housekeeping gene (Vandesompele, De Preter et al. 2002). After cDNA fluorescent quantification using propidium iodide, 250 ng, 25 ng and 2.5 ng of cDNA were added as PCR template in the LightCycler glass capillaries. The cycling conditions comprised a 10 min polymerase activation at 95° C. and 50 cycles at 95° C. for 10 s, 64° C. for 5 s and 72° C. for 18 s with a single fluorescence measurement. […] A mathematical model was used to determine the relative quantification of target genes compared to HMBS reference gene (Pfaffl 2001).
To that aim, confluent normal human keratinocytes (NHEK) were treated for 24 hrs with the indicated mix of cytokines (each cytokine at 1 ng/ml final concentration). Total RNA was extracted, reverse-transcribed and the expression of the selected genes was analyzed by real-time PCR as described.

[8] = system: STAT3; experiment: STAT3 phosphorylation in NHEK (Western blot); format: cell-based, human; conditions: NHEK stimulated 15 min with the cytokine
Description: For STAT3 and MAPK phosphorylation, NHEK were stimulated for 15 min in the presence of the indicated cytokine. Cells were lysed in SDS sample buffer (62.5 mM Tris-HCl pH 6.8, 2% SDS, 10% glycerol, 50 mM DTT, 0.1% bromophenol blue), sonicated and then submitted to SDS-PAGE and transferred onto an Immobilon membrane. The membranes were subsequently incubated overnight with the primary antibody, before being incubated with the appropriate peroxidase-labelled secondary antibody for 60 min. The reaction was visualized by chemiluminescence according to the manufacturer's instructions. Membranes were stripped in 0.1 M glycine pH 2.8 for 2 h and neutralized in 1 M Tris-HCl pH 7.6 before reblotting. For neutralizing experiments, NHEK were incubated with the appropriate antibodies for 2 h before stimulation.

[9] = system: NHEK; experiment: In vitro keratinocyte migration assay; format: cell-based, human; conditions: mitomycin-treated wounded NHEK; OSM 10 ng/ml, IL-31 100 ng/ml
Description: Keratinocytes were cultured in wells pre-coated with type I collagen (200 μg/ml, Institut Jacques Boy, Reims, France) until they reached 80% confluency. Cells were starved for 48 h in Keratinocyte SFM and then treated with 10 μg/ml of mitomycin C (Sigma) for 2 h to prevent cell proliferation. A cell-free area was created by scraping the keratinocyte monolayer with a plastic pipette tip. Keratinocytes migration to the cell-free area was evaluated after 48 h of culture in the absence or presence of EGF or OSM. Using an inverted phase contrast microscope. The number of migrating keratinocytes was counted in 4 non-overlapping fields. Values represent the mean±SEM of cells per mm^2 beyond the frontiers of the in vitro injury. Student's t test was used for statistical analysis.

[10] = system: NHEK; experiment: RT-real time PCR of S100 mRNA in cytokine-stimulated NHEK; format: cell-based, human; conditions: IL-31
Description: as §4

Row | Molecule | Number of KDM whose control mRNA expression is partially restored on removal of the cytokine from M5 [1] [KDM] | mRNA expression of CK1, DSG1, DSC1, FLG, CLSP, LOR and FABPS [1] | Number of genes (of 154) whose expression is modified with at least a three fold increase or decrease [2] | Contribution to M5 activity on BD2 and CXCL8 production (successive removal) [3] | Number of the 21 chemokine and antimicrobial peptide genes upregulated [4] | CK10, LOR and FLG expression (immunohistology) [6] | IVL expression (immunohistology) [6] | S100A7 expression (immunohistology) [6] | RHE histology [6] | Decrease of the activity of the 5 cytokines reference mix on omission of the cytokine, S100A7 [7] [fold] | Decrease of the activity of the 5 cytokines reference mix on omission of the cytokine, hBD2/4 [7] [fold] | STAT3 tyrosine phosphorylation (P-STAT3) [8] | further results
1 | IL-17A: recombinant cytokine; IL-17 designates IL-17A, IL-17B or a mixture, preferably IL-17A | 3 | minor activities | at least five genes | more critical to the activity of the M5 combination | 16 | did not exhibit any activity | discreetly induced | very slightly | does not modify RHE histology | 4.5 | 36 | – | BD2 production, single cytokines ([3]; 10 ng/ml): most potent inducers; IVL mRNA expression [5]: discretely inhibited
2 | IL-22: recombinant cytokine IL-22 | 4 | downregulate mRNA expression | at least five genes | – | 14 | decreases expression of CK10, LOR and FLG | strongly | strongly induced | significant keratinocyte hyperplasia | – | – | – | BD3 production ([3]; 10 ng/ml): significant increase; CXCL1, CXCL5, CXCL8 production, single cytokines ([3]; 10 ng/ml): discrete effect; Expression of KDM mRNA (CK10, CK1, LOR, FLG) [5]: most active cytokines; S100A7 mRNA expression [5]: strongly induced; Effect of depleting the cytokine from the mix on activity of the complete cocktail [7]: did not significantly decrease the activity
3 | LIF: leukemia inhibitory factor, cytokine of the IL-6 family | – | – | – | – | – | – | – | – | – | – | – | no evidence for a STAT3 activation | –
4 | TNFα | – | downregulate mRNA expression | at least five genes | more critical to the activity of the M5 combination | 20 | did not exhibit any activity | discreetly induced | very slightly | does not modify RHE histology | 3 | 5.6 | – | Rank as contributor to keratinocyte differentiation inhibition (removal from M5) [1]: most potent cytokines for keratinocyte differentiation inhibition
5 | B1 | – | – | – | – | – | – | – | – | – | – | – | recruits STAT3 signaling pathways | Keratinocyte migration to the cell-free area [9]: able to induce keratinocyte migration; Expression of psoriasin and calgranulin A and B (S100A8-9) [10]: induces expression
